Measured values as given in publication PMC8037182, “Solvothermal Synthesis of Multiple Dihydropyrimidinones at a Time as Inhibitors of Eg5” (Molecules, 2021).

What was measured:
[1] = tested on: L929 cell line; assay: Cytotoxicity MTS assay, L929 cell line; assay type: cell-based; settings: for OD490 values, Mean / OD490 values, Well 1 / OD490 values, Well 2 / OD490 values, Well 3: L929 cell line
In short: (§1)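 Growth inhibition is measured by MTS conversion, read as absorbance at 490 nm after 2 h at 37 °C. Compounds act on cells seeded at 1000/well for 24 h across 0.5–100 µM final. Data derive from three independent duplicate experiments.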

[2] = tested on: T24 cell line; assay: Cytotoxicity MTS assay, T24 cell line; assay type: cell-based; settings: for OD490 Mean / OD490 Well 1 / OD490 Well 2 / OD490 Well 3: T24 cell line, first assay;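 as to OD490 Mean: blank control wells received 0.025% DMSO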;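 as to OD490 Well 1: blank control wells received 0.025% DMSO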;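 as to OD490 Well 2: blank control wells received 0.025% DMSO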;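 as to OD490 Well 3: blank control wells received 0.025% DMSO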
In short: as §1

Structure (SMILES): CCOC(=O)c1[nH]c(C2NC(=O)NC(C)=C2C(=O)Nc2ccc(Cl)cc2)c(C(=O)OCC)c1C (centres unmarked) [D7]
- OD490 values, Mean ([1]; 0.5μM, first assay): 1.2964
- OD490 values, Well 1 ([1]; 0.5μM, first assay): 1.2432
- OD490 values, Well 2 ([1]; 0.5μM, first assay): 1.3324
- OD490 values, Well 3 ([1]; 0.5μM, first assay): 1.3135
- OD490 values, Mean ([1]; 0.5μM, second assay): 1.6723
- OD490 values, Well 1 ([1]; 0.5μM, second assay): 1.6985
- OD490 values, Well 2 ([1]; 0.5μM, second assay): 1.7484
- OD490 values, Well 3 ([1]; 0.5μM, second assay): 1.5699
- OD490 values, Mean ([1]; 0.5μM, third assay): 1.6351
- OD490 values, Well 1 ([1]; 0.5μM, third assay): 1.6545
- OD490 values, Well 2 ([1]; 0.5μM, third assay): 1.5521
- OD490 values, Well 3 ([1]; 0.5μM, third assay): 1.6987
- OD490 values, Mean ([1]; 1μM, first assay): 1.2921
- OD490 values, Well 1 ([1]; 1μM, first assay): 1.3838
- OD490 values, Well 2 ([1]; 1μM, first assay): 1.2582
- OD490 values, Well 3 ([1]; 1μM, first assay): 1.2343
- OD490 values, Mean ([1]; 1μM, second assay): 1.6805
- OD490 values, Well 1 ([1]; 1μM, second assay): 1.6879
- OD490 values, Well 2 ([1]; 1μM, second assay): 1.6582
- OD490 values, Well 3 ([1]; 1μM, second assay): 1.6955
- OD490 values, Mean ([1]; 1μM, third assay): 1.6677
- OD490 values, Well 1 ([1]; 1μM, third assay): 1.6254
- OD490 values, Well 2 ([1]; 1μM, third assay): 1.6358
- OD490 values, Well 3 ([1]; 1μM, third assay): 1.7420
- OD490 values, Mean ([1]; 10μM, first assay): 1.2890
- OD490 values, Well 1 ([1]; 10μM, first assay): 1.2982
- OD490 values, Well 2 ([1]; 10μM, first assay): 1.3257
- OD490 values, Well 3 ([1]; 10μM, first assay): 1.2432
- OD490 values, Mean ([1]; 10μM, second assay): 1.6485
- OD490 values, Well 1 ([1]; 10μM, second assay): 1.6354
- OD490 values, Well 2 ([1]; 10μM, second assay): 1.6254
- OD490 values, Well 3 ([1]; 10μM, second assay): 1.6847
- OD490 values, Mean ([1]; 10μM, third assay): 1.7036
- OD490 values, Well 1 ([1]; 10μM, third assay): 1.5935
- OD490 values, Well 2 ([1]; 10μM, third assay): 1.8852
- OD490 values, Well 3 ([1]; 10μM, third assay): 1.6320
- OD490 values, Mean ([1]; 25μM, first assay): 1.2098
- OD490 values, Well 1 ([1]; 25μM, first assay): 1.2509
- OD490 values, Well 2 ([1]; 25μM, first assay): 1.2839
- OD490 values, Well 3 ([1]; 25μM, first assay): 1.0945
- OD490 values, Mean ([1]; 25μM, second assay): 1.5137
- OD490 values, Well 1 ([1]; 25μM, second assay): 1.4655
- OD490 values, Well 2 ([1]; 25μM, second assay): 1.5869
- OD490 values, Well 3 ([1]; 25μM, second assay): 1.4888
- OD490 values, Mean ([1]; 25μM, third assay): 1.4100
- OD490 values, Well 1 ([1]; 25μM, third assay): 1.4658
- OD490 values, Well 2 ([1]; 25μM, third assay): 1.4441
- OD490 values, Well 3 ([1]; 25μM, third assay): 1.3201
- OD490 values, Mean ([1]; 50μM, first assay): 1.1393
- OD490 values, Well 1 ([1]; 50μM, first assay): 1.0255
- OD490 values, Well 2 ([1]; 50μM, first assay): 1.3097
- OD490 values, Well 3 ([1]; 50μM, first assay): 1.0826
- OD490 values, Mean ([1]; 50μM, second assay): 1.3764
- OD490 values, Well 1 ([1]; 50μM, second assay): 1.3685
- OD490 values, Well 2 ([1]; 50μM, second assay): 1.3652
- OD490 values, Well 3 ([1]; 50μM, second assay): 1.3955
- OD490 values, Mean ([1]; 50μM, third assay): 1.3402
- OD490 values, Well 1 ([1]; 50μM, third assay): 1.3584
- OD490 values, Well 2 ([1]; 50μM, third assay): 1.2635
- OD490 values, Well 3 ([1]; 50μM, third assay): 1.3987
- OD490 values, Mean ([1]; 100μM, first assay): 0.7147
- OD490 values, Well 1 ([1]; 100μM, first assay): 0.7427
- OD490 values, Well 2 ([1]; 100μM, first assay): 0.7798
- OD490 values, Well 3 ([1]; 100μM, first assay): 0.6215
- OD490 values, Mean ([1]; 100μM, second assay): 0.8285
- OD490 values, Well 1 ([1]; 100μM, second assay): 0.8306
- OD490 values, Well 2 ([1]; 100μM, second assay): 0.7562
- OD490 values, Well 3 ([1]; 100μM, second assay): 0.8988
- OD490 values, Mean ([1]; 100μM, third assay): 0.8420
- OD490 values, Well 1 ([1]; 100μM, third assay): 0.8635
- OD490 values, Well 2 ([1]; 100μM, third assay): 0.8992
- OD490 values, Well 3 ([1]; 100μM, third assay): 0.7632
- IC50 ([1]; MTS assay, 24 h exposure, ordinary fibroblast, not cancer cells): 94.7 µM
- IC50 ([2]; MTS assay, 24 h exposure): > 150 µM
- OD490 Mean ([2]; 0.5μM): 1.2446
- OD490 Well 1 ([2]; 0.5μM): 1.2491
- OD490 Well 2 ([2]; 0.5μM): 1.2874
- OD490 Well 3 ([2]; 0.5μM): 1.1973
- OD490 Mean ([2]; 1μM): 1.5295
- OD490 Well 1 ([2]; 1μM): 1.4588
- OD490 Well 2 ([2]; 1μM): 1.7975
- OD490 Well 3 ([2]; 1μM): 1.3323
- OD490 Mean ([2]; 10μM): 1.4981
- OD490 Well 1 ([2]; 10μM): 1.4996
- OD490 Well 2 ([2]; 10μM): 1.6104
- OD490 Well 3 ([2]; 10μM): 1.3842
- OD490 Mean ([2]; 25μM): 1.5238
- OD490 Well 1 ([2]; 25μM): 1.6186
- OD490 Well 2 ([2]; 25μM): 1.5573
- OD490 Well 3 ([2]; 25μM): 1.3956
- OD490 Mean ([2]; 50μM): 1.3341
- OD490 Well 1 ([2]; 50μM): 1.3613
- OD490 Well 2 ([2]; 50μM): 1.2657
- OD490 Well 3 ([2]; 50μM): 1.3754
- OD490 Mean ([2]; 100μM): 1.4451
- OD490 Well 1 ([2]; 100μM): 1.4704
- OD490 Well 2 ([2]; 100μM): 1.5023
- OD490 Well 3 ([2]; 100μM): 1.3625
